ChEMBL document CHEMBL3885861, “Open TG-GATES”

Species: Rattus norvegicus
Assay: Open TG-GATES - Regimen: Single
Type: toxicity, organism-based, Sprague-Dawley
Set-up: regimen Single, gender Male, age 6 weeks
Settings: in vivo, po, 100 mg/kg, route gavage, dose level Middle; for APTT / Bas / Eos / Fbg / Hb / Ht / Lym / MCH / MCHC / MCV / Mono / Neu / PT / Plat / RBC / Ret / WBC: tissue Blood; for KIDNEY_L / KIDNEY_R / KIDNEY_TOTAL: tissue Kidney; for LIVER: tissue Liver; for A/G / ALP / ALT / AST / BUN / CRE / Ca / Cl / DBIL / GLC / IP / K / LDH / Na / PL / RALB / TBIL / TC / TG / TP / gamma-GTP: tissue Plasma

CCCNC(=O)NS(=O)(=O)c1ccc(Cl)cc1 [CHLORPROPAMIDE]
TERMINAL_BW (3 h): 198.7 g | APTT (3 h): 19.6 s | Bas (3 h): 0% | Eos (3 h): 1% | Fbg (3 h): 311.8 mg/dL | Hb (3 h): 13.9 g/dL | Ht (3 h): 42.7% | Lym (3 h): 73.2% | MCH (3 h): 21.4 pg | MCHC (3 h): 32.5% | MCV (3 h): 66 fL | Mono (3 h): 3.8% | Neu (3 h): 20.8% | PT (3 h): 15.6 s | Plat (3 h): 113.1 x10_4/uL | RBC (3 h): 648.4 x10_4/ul | Ret (3 h): 9.2% | WBC (3 h): 72.2 x10_2/uL | KIDNEY_L (3 h): 0.9 g | KIDNEY_R (3 h): 0.9 g | KIDNEY_TOTAL (3 h): 1.8 g | LIVER (3 h): 8.8 g | A/G (3 h): 0.9 | ALP (3 h): 1315.6 IU/L | ALT (3 h): 48.8 IU/L | AST (3 h): 80 IU/L | BUN (3 h): 11.2 mg/dL | CRE (3 h): 0.2 mg/dL | Ca (3 h): 10.8 mg/dL | Cl (3 h): 107.8 meq/L | DBIL (3 h): 0.01 mg/dL | GLC (3 h): 126.4 mg/dL | IP (3 h): 9.2 mg/dL | K (3 h): 3.8 meq/L | LDH (3 h): 71.6 IU/L | Na (3 h): 144.6 meq/L | PL (3 h): 129 mg/dL | RALB (3 h): 2.6 g/dL | TBIL (3 h): 0.02 mg/dL | TC (3 h): 74.6 mg/dL | TG (3 h): 71 mg/dL | TP (3 h): 5.7 g/dL | gamma-GTP (3 h): 1.4 IU/L | TERMINAL_BW (6 h): 194.9 g | APTT (6 h): 23.7 s | Bas (6 h): 0.2% | Eos (6 h): 1% | Fbg (6 h): 317 mg/dL | Hb (6 h): 13.6 g/dL | Ht (6 h): 41.9% | Lym (6 h): 71.6% | MCH (6 h): 21.7 pg | MCHC (6 h): 32.4% | MCV (6 h): 66.9 fL | Mono (6 h): 3.6% | Neu (6 h): 22.4% | PT (6 h): 15.1 s | Plat (6 h): 122.2 x10_4/uL | RBC (6 h): 627 x10_4/ul | Ret (6 h): 9.8% | WBC (6 h): 96.8 x10_2/uL | KIDNEY_L (6 h): 0.9 g | KIDNEY_R (6 h): 0.8 g | KIDNEY_TOTAL (6 h): 1.7 g | LIVER (6 h): 8 g | A/G (6 h): 0.9 | ALP (6 h): 1525.8 IU/L | ALT (6 h): 44.2 IU/L | AST (6 h): 80.8 IU/L | BUN (6 h): 12.6 mg/dL | CRE (6 h): 0.2 mg/dL | Ca (6 h): 11 mg/dL | Cl (6 h): 109 meq/L | DBIL (6 h): 0.002 mg/dL | GLC (6 h): 123.8 mg/dL | IP (6 h): 9.9 mg/dL | K (6 h): 4 meq/L | LDH (6 h): 81 IU/L | Na (6 h): 143.8 meq/L | PL (6 h): 139.6 mg/dL | RALB (6 h): 2.6 g/dL | TBIL (6 h): 0.02 mg/dL | TC (6 h): 85.4 mg/dL | TG (6 h): 49.8 mg/dL | TP (6 h): 5.7 g/dL | gamma-GTP (6 h): 1.2 IU/L | TERMINAL_BW (9 h): 194.2 g | APTT (9 h): 17.1 s | Bas (9 h): 0% | Eos (9 h): 1% | Fbg (9 h): 307.8 mg/dL | Hb (9 h): 13.1 g/dL | Ht (9 h): 40.7% | Lym (9 h): 71.4% | MCH (9 h): 20.9 pg | MCHC (9 h): 32.3% | MCV (9 h): 64.8 fL | Mono (9 h): 3% | Neu (9 h): 24% | PT (9 h): 15.1 s | Plat (9 h): 119.5 x10_4/uL | RBC (9 h): 627.4 x10_4/ul | Ret (9 h): 10% | WBC (9 h): 82.5 x10_2/uL | KIDNEY_L (9 h): 0.9 g | KIDNEY_R (9 h): 0.9 g | KIDNEY_TOTAL (9 h): 1.8 g | LIVER (9 h): 7.8 g | A/G (9 h): 0.9 | ALP (9 h): 1124.6 IU/L | ALT (9 h): 35.6 IU/L | AST (9 h): 77 IU/L | BUN (9 h): 9.8 mg/dL | CRE (9 h): 0.2 mg/dL | Ca (9 h): 10.7 mg/dL | Cl (9 h): 107.6 meq/L | DBIL (9 h): 0 mg/dL | GLC (9 h): 119.4 mg/dL | IP (9 h): 10.1 mg/dL | K (9 h): 3.9 meq/L | LDH (9 h): 68.6 IU/L | Na (9 h): 143.2 meq/L | PL (9 h): 120.4 mg/dL | RALB (9 h): 2.5 g/dL | TBIL (9 h): 0.026 mg/dL | TC (9 h): 70.8 mg/dL | TG (9 h): 37 mg/dL | TP (9 h): 5.4 g/dL | gamma-GTP (9 h): 1.2 IU/L | TERMINAL_BW (24 h): 210.9 g | APTT (24 h): 20 s | Bas (24 h): 0% | Eos (24 h): 1% | Fbg (24 h): 318.2 mg/dL | Hb (24 h): 12.6 g/dL | Ht (24 h): 39.1% | Lym (24 h): 73% | MCH (24 h): 21 pg | MCHC (24 h): 32.2% | MCV (24 h): 65.2 fL | Mono (24 h): 3.6% | Neu (24 h): 21% | PT (24 h): 15.8 s | Plat (24 h): 111.8 x10_4/uL | RBC (24 h): 599.4 x10_4/ul | Ret (24 h): 9.2% | WBC (24 h): 97.9 x10_2/uL | KIDNEY_L (24 h): 0.9 g | KIDNEY_R (24 h): 1 g | KIDNEY_TOTAL (24 h): 1.9 g | LIVER (24 h): 9.6 g | A/G (24 h): 0.9 | ALP (24 h): 1496.2 IU/L | ALT (24 h): 45.4 IU/L | AST (24 h): 70.2 IU/L | BUN (24 h): 15.6 mg/dL | CRE (24 h): 0.2 mg/dL | Ca (24 h): 10.9 mg/dL | Cl (24 h): 105.8 meq/L | DBIL (24 h): 0.004 mg/dL | GLC (24 h): 177.4 mg/dL | IP (24 h): 8.4 mg/dL | K (24 h): 3.7 meq/L | LDH (24 h): 87.2 IU/L | Na (24 h): 143 meq/L | PL (24 h): 145 mg/dL | RALB (24 h): 2.6 g/dL | TBIL (24 h): 0.032 mg/dL | TC (24 h): 81.4 mg/dL | TG (24 h): 63.6 mg/dL | TP (24 h): 5.5 g/dL | gamma-GTP (24 h): 1 IU/L
